Laboratory results reported in the supplement of paper PMC11061612.

Experiments:
Test in all cases: Bliss excess, mean over the matrix (fraction); higher = more synergy
[1] = test system: HPAC (Pancreatic Carcinoma)
Summary of the method: (§1)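 Cell lines grown in DMEM/F12 or RPMI with 10% FBS were plated in 1536-well plates and held 24 hours at 37°C, 5% CO2 before 72 hours of exposure to two-drug dose matrices, with DMSO typically at 0.2%. CellTiter-Glo 2.0 luminescence gave viability, which was converted to inhibition. Vehicle wells were set to 0 and blank wells to 1. Combination Emax is the second-highest inhibition in the matrix, and Bliss excess is the observed combination effect minus the expected EA + EB − EA·EB, where EA and EB are the single-agent effects.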

[2] = test system: OCI-AML2 (Acute Myeloid Leukemia)
Summary of the method: as §1

[3] = test system: SW1783 (Low Grade Glioma)
Summary of the method: as §1

[4] = test system: EM-2 (Chronic Myelogenous Leukemia)
Summary of the method: as §1

[5] = test system: 697 (B-Lymphoblastic Leukemia)
Summary of the method: as §1

[6] = test system: HT-29 (Colorectal Carcinoma)
Summary of the method: as §1

[7] = test system: LU-99A (Non-Small Cell Lung Carcinoma)
Summary of the method: as §1

[8] = test system: SNU-C5 (Colorectal Carcinoma)
Summary of the method: as §1

[9] = test system: KARPAS-620 (Plasma Cell Myeloma)
Summary of the method: as §1

[10] = test system: CFPAC-1 (Pancreatic Carcinoma)
Summary of the method: as §1

[11] = test system: J82 (Bladder Carcinoma)
Summary of the method: as §1

[12] = test system: SW756 (Cervical Carcinoma)
Summary of the method: as §1

[13] = test system: SN12C (Kidney Carcinoma)
Summary of the method: as §1

[14] = test system: U-266 (Plasma Cell Myeloma)
Summary of the method: as §1

[15] = test system: IHH-4 (Thyroid Gland Carcinoma)
Summary of the method: as §1

[16] = test system: C3A (Hepatocellular Carcinoma)
Summary of the method: as §1

[17] = test system: COR-L95 (Small Cell Lung Carcinoma)
Summary of the method: as §1

[18] = test system: DB (B-Cell Non-Hodgkin's Lymphoma)
Summary of the method: as §1

[19] = test system: NCI-H1299 (Non-Small Cell Lung Carcinoma)
Summary of the method: as §1

[20] = test system: NALM-6 (B-Lymphoblastic Leukemia)
Summary of the method: as §1

Row | Structure (SMILES) | Bliss excess [1] | Bliss excess [2] | Bliss excess [3] | Bliss excess [4] | Bliss excess [5] | Bliss excess [6] | Bliss excess [7] | Bliss excess [8] | Bliss excess [9] | Bliss excess [10] | Bliss excess [11] | Bliss excess [12] | Bliss excess [13] | Bliss excess [14] | Bliss excess [15] | Bliss excess [16] | Bliss excess [17] | Bliss excess [18] | Bliss excess [19] | Bliss excess [20]
1 | CC(=O)c1c(C)c2cnc(Nc3ccc(N4CCNCC4)cn3)nc2n(C2CCCC2)c1=O [Palbociclib] + CC1(C)CCC(CN2CCN(c3ccc(C(=O)NS(=O)(=O)c4ccc(NCC5CCOCC5)c([N+](=O)[O-])c4)c(Oc4cnc5[nH]ccc5c4)c3)CC2)=C(c2ccc(Cl)cc2)C1 [Venetoclax] (first compound max 10 µM, 7x7, partner max 1 µM) | -0.0619 | 0.0188 | -0.0484 | 0.0262 | -0.0738 | -0.0139 | 0.048 | -0.017 | 0.0056 | 0.015 | -0.0388 | -0.062 | -0.0525 | -0.116 | 0.0096 | 0.0437 | -0.0581 | 0.0187 | 0.0231 | 0.0132
2 | CN(C)CCCOc1ccc(-c2ccc3ncc4c(c3c2)n(C2CCOCC2)c(=O)n4C)cn1 [AZD0156] + O=C(c1cc(Cc2n[nH]c(=O)c3ccccc23)ccc1F)N1CCN(C(=O)C2CC2)CC1 [Olaparib] (first compound max 3 µM, partner max 3 µM) | 0.0152 | 0.171 | 0.007 | 0.0753 | 0.186 | 0.015 | -0.0145 | 0.0621 | 0.0798 | -0.0026 | -0.0375 | -0.0192 | -0.0357 | -0.106 | 0.0949 | -0.0171 | -0.11 | 0.149 | 0.0495 | 0.173
3 | Cn1cnc2c(F)c(Nc3ccc(Br)cc3Cl)c(C(=O)NOCCO)cc21 [Selumetinib] + CC(C)n1c(=O)n(C)c2cnc3cc(F)c(-c4ccc(OCCCN5CCCCC5)nc4)cc3c21 [AZD1390] (first compound max 10 µM, 7x7, partner max 0.3 µM) | -0.0401 | -0.0079 | -0.048 | 0.0304 | -0.0227 | -0.0043 | -0.0058 | -0.0283 | 0.0201 | -0.0627 | 0.0142 | -0.019 | -0.0313 | -0.0413 | -0.0326 | 0.0046 | -0.016 | -0.0488 | -0.012 | -0.0248
4 | NC1(C(=O)N[C@@H](CCO)c2ccc(Cl)cc2)CCN(c2ncnc3[nH]ccc23)CC1 [Capivasertib] + C[C@@H]1COCCN1C2=NC(=NC(=C2)C3(CC3)[S@](=N)(=O)C)C4=C5C=CNC5=NC=C4 [AZD6738] (first compound max 10 µM, 7x7, partner max 10 µM) | -0.0425 | -0.0474 | -0.0511 | -0.0512 | -0.0173 | -0.0396 | -0.0059 | -0.0645 | -0.0384 | -0.0224 | -0.065 | 0.0407 | -0.0044 | -0.0793 | 0.0028 | -0.0096 | -0.0644 | -0.0769 | -0.0309 | -0.0686
5 | CC(=O)Nc1cccc(-n2c(=O)n(C3CC3)c(=O)c3c(Nc4ccc(I)cc4F)n(C)c(=O)c(C)c32)c1 [Trametinib] + Cc1nc(-c2cn3c(n2)-c2ccc(-c4cnn(C(C)(C)C(N)=O)c4)cc2OCC3)n(C(C)C)n1 [Taselisib] (first compound max 1 µM, 7x7, partner max 10 µM) | 0.0762 | 0.0227 | -0.027 | 0.319 | 0.117 | 0.0526 | 0.116 | 0.0951 | 0.24 | 0.148 | 0.0623 | 0.0988 | 0.0395 | 0.181 | -0.0242 | 0.147 | 0.0096 | -0.004 | 0.121 | -0.0228
6 | CN(CCO)CC[C@H](CSc1ccccc1)Nc1ccc(S(=O)(=O)NC(=O)c2ccc(N3CCC([C@@H](O)c4ccccc4-c4ccc(Cl)cc4)CC3)cc2)cc1S(=O)(=O)C(F)(F)F [AZD4320] + CCN(CCO)CCCOc1ccc2c(Nc3cc(CC(=O)Nc4cccc(F)c4)[nH]n3)ncnc2c1 [AZD2811] (first compound max 1 µM, 7x7, partner max 1 µM) | 0.0486 | 0.0189 | -0.0701 | -0.0327 | 0.0021 | -0.0074 | 0.0564 | 0.0121 | 0.0899 | -0.0754 | -0.0304 | -0.0334 | -0.0249 | 0.113 | -0.0372 | -0.0487 | 0.0522 | 0.0983 | -0.0237 | 0.0868
7 | COc1cccc(OCCCN)c1-c1cc(Nc2cnc(C#N)cn2)n[nH]1 [Prexasertib] + Cc1cc2ncnn2cc1Nc1ncc2c(n1)n(C1CCOCC1)c(=O)n2C [AZD7648] (first compound max 1 µM, 7x7, partner max 10 µM) | -0.0074 | -0.0211 | -0.0281 | -0.0274 | -0.0293 | -0.0377 | -0.0343 | -0.0495 | 0.0083 | -0.0398 | 0.0089 | 0.0098 | -0.0816 | -0.0518 | -0.0109 | -0.0264 | -0.102 | -0.0319 | -0.0577 | -0.044
8 | CN(CCO)CC[C@H](CSc1ccccc1)Nc1ccc(S(=O)(=O)NC(=O)c2ccc(N3CCC([C@@H](O)c4ccccc4-c4ccc(Cl)cc4)CC3)cc2)cc1S(=O)(=O)C(F)(F)F [AZD4320] + CN(C)CCCOc1ccc(-c2ccc3ncc4c(c3c2)n(C2CCOCC2)c(=O)n4C)cn1 [AZD0156] (first compound max 1 µM, 7x7, partner max 1 µM) | -0.0709 | -0.0296 | -0.0298 | -0.0192 | -0.0116 | -0.0238 | -0.006 | 0.0125 | 0.0092 | -0.0354 | -0.0464 | -0.0362 | -0.0633 | 0.0462 | -0.022 | -0.0281 | 0.0046 | 0.0373 | -0.0462 | 0.0217
9 | COc1cccc(OCCCN)c1-c1cc(Nc2cnc(C#N)cn2)n[nH]1 [Prexasertib] + CN(C)CCCOc1ccc(-c2ccc3ncc4c(c3c2)n(C2CCOCC2)c(=O)n4C)cn1 [AZD0156] (first compound max 1 µM, 7x7, partner max 1 µM) | 0.0404 | -0.0276 | -0.0111 | -0.0279 | -0.0087 | -0.0343 | 0.0172 | -0.0292 | 0.0277 | 0.0232 | 0.0036 | -0.0179 | -0.0387 | -0.032 | 0.0504 | 0.0035 | -0.0723 | 0.0289 | -0.0332 | 0.0002
10 | CC1(C)CCC(CN2CCN(c3ccc(C(=O)NS(=O)(=O)c4ccc(NCC5CCOCC5)c([N+](=O)[O-])c4)c(Oc4cnc5[nH]ccc5c4)c3)CC2)=C(c2ccc(Cl)cc2)C1 [Venetoclax] + C1CN(CCC1(C(=O)N[C@@H](CCO)C2=CC=C(C=C2)Cl)N)C3=NC=NC4=C3C=CN4 [Capivasertib] (first compound max 1 µM, 7x7, partner max 3 µM) | -0.0234 | 0.0444 | -0.0494 | -0.0593 | -0.0154 | -0.0325 | -0.0702 | -0.0069 | 0.0971 | -0.0274 | -0.0827 | -0.0171 | -0.0557 | -0.071 | -0.0187 | -0.0621 | 0.0145 | 0.0332 | -0.0036 | 0.0346
11 | CC(=O)c1c(C)c2cnc(Nc3ccc(N4CCNCC4)cn3)nc2n(C2CCCC2)c1=O [Palbociclib] + Cc1c2c(nn1C)CSCc1cc(n(C)n1)CSc1cc(c3ccccc3c1)OCCCc1c(C(=O)O)n(C)c3c-2c(Cl)ccc13 [AZD5991] (first compound max 10 µM, 7x7, partner max 1 µM) | -0.0423 | 0.004 | -0.0248 | -0.021 | -0.0709 | 0.0058 | -0.046 | -0.0377 | 0.0443 | -0.0063 | -0.0174 | -0.0749 | -0.0358 | -0.019 | -0.0171 | 0.0027 | -0.0112 | 0.0577 | 0.0018 | 0.0147
12 | Cc1c2c(nn1C)CSCc1cc(n(C)n1)CSc1cc(c3ccccc3c1)OCCCc1c(C(=O)O)n(C)c3c-2c(Cl)ccc13 [AZD5991] + CCN(CCO)CCCOc1ccc2c(Nc3cc(CC(=O)Nc4cccc(F)c4)[nH]n3)ncnc2c1 [AZD2811] (first compound max 1 µM, 7x7, partner max 1 µM) | 0.0104 | 0.126 | -0.0135 | -0.0729 | -0.0039 | 0.0498 | 0.0252 | 0.0247 | 0.066 | -0.0148 | 0.0288 | 0.0141 | 0.0191 | 0.0482 | 0.0306 | 0.0494 | 0.0028 | 0.0711 | -0.0012 | -0.0839
13 | Cc1cc2ncnn2cc1Nc1ncc2c(n1)n(C1CCOCC1)c(=O)n2C [AZD7648] + C[C@@H]1COCCN1C2=NC(=NC(=C2)C3(CC3)[S@](=N)(=O)C)C4=C5C=CNC5=NC=C4 [AZD6738] (first compound max 10 µM, 7x7, partner max 10 µM) | 0.0187 | 0.0045 | 0.0913 | -0.0013 | -0.009 | 0.0118 | 0.0077 | 0.0455 | -0.0283 | -0.0108 | -0.0122 | 0.0048 | 0.0264 | -0.0168 | 0.0366 | 0.0722 | -0.0029 | -0.0509 | 0.0116 | -0.0561
14 | CCN(CCO)CCCOc1ccc2c(Nc3cc(CC(=O)Nc4cccc(F)c4)[nH]n3)ncnc2c1 [AZD2811] + O=C(c1cc(Cc2n[nH]c(=O)c3ccccc23)ccc1F)N1CCN(C(=O)C2CC2)CC1 [Olaparib] (first compound max 1 µM, 7x7, partner max 10 µM) | 0.0032 | -0.0351 | -0.0423 | -0.0589 | 0.0165 | 0.0007 | -0.0181 | -0.0041 | 0.0273 | 0.0077 | -0.0207 | -0.0232 | 0.0151 | -0.0139 | 0.0229 | -0.0495 | -0.0526 | -0.0544 | -0.0131 | -0.0086
